Data on one compound can be found in ChEMBL document CHEMBL3808348, “Rational Design, Synthesis, and Biological Evaluation of 7-Azaindole Derivatives as Potent Focused Multi-Targeted Kinase Inhibitors” (J Med Chem, 2016).

The target in data set [1] is AMP-activated protein kinase, AMPK (Homo sapiens) (UniProt P54646+O43741+P54619+Q9UGJ0+Q9Y478+Q13131+Q9UGI9). Particulars: 100 nM.
Description: Inhibition of full length human recombinant AMPK expressed in baculovirus expression system using Fluorescein-CREBtide as substrate at 100 nM
Data set [2] addresses cAMP-dependent protein kinase catalytic subunit alpha (Homo sapiens) (UniProt P17612). The note with it: 100 nM.
Description: Inhibition of His-tagged human recombinant PKA C-alpha (1 to 351 residues) expressed in Escherichia coli using Fluorescein-Crosstide as substrate at 100 nM
For data set [3], the target named is Angiopoietin-1 receptor (Homo sapiens) (UniProt Q02763). The note with it: 100 nM.
Sequence of Angiopoietin-1 receptor (Homo sapiens) (Q02763 whole entry): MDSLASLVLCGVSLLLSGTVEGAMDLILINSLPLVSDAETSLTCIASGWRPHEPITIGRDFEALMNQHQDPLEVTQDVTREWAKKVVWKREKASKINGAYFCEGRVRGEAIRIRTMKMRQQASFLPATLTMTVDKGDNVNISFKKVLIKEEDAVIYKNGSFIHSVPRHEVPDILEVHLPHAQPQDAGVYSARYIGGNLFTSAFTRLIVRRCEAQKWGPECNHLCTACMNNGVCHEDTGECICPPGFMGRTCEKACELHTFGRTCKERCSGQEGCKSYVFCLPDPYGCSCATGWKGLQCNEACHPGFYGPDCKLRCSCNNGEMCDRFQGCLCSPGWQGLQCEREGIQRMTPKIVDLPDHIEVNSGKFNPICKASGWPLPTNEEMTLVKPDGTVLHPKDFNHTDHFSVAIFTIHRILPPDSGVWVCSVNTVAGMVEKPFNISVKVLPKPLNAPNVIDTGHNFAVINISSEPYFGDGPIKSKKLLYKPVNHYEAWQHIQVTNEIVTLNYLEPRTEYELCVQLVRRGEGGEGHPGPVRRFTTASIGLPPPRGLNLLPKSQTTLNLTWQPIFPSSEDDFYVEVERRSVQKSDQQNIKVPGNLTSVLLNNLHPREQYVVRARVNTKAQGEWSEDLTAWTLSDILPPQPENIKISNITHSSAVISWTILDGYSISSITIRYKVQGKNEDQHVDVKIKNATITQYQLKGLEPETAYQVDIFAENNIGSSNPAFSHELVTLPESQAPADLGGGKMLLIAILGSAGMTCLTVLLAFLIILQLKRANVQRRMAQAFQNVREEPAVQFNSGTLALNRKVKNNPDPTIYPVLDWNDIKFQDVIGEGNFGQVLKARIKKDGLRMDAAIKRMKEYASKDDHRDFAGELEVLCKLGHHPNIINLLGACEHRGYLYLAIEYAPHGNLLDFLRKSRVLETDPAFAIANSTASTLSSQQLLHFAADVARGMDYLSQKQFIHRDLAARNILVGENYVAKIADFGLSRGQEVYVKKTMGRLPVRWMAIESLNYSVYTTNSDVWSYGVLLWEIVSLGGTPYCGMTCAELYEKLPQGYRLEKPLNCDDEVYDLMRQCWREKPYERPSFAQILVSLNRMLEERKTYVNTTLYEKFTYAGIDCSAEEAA
Description: Inhibition of GST-tagged human recombinant TIE2 (817 to 1101 residues) expressed in baculovirus using Fluorescein-Poly GT as substrate at 100 nM
The target of data set [4] is Receptor-type tyrosine-protein kinase FLT3 (Homo sapiens) (UniProt P36888). The note with it: 100 nM.
Description: Inhibition of His-tagged human recombinant FLT3 (564 to 958 residues) expressed in baculovirus using Fluorescein-Poly GT as substrate at 100 nM
Data set [5] can be described thus: Tmax in Swiss mouse plasma at 20 mg/kg, po by LC/MS/MS analysis. The data set is classed as ADME, organism-based.
In data set [6] the test system is Epidermal growth factor receptor (Homo sapiens), P00533 [T790M]. Particulars: 100 nM.
Sequence of Epidermal growth factor receptor (Homo sapiens), P00533 [T790M] (P00533 whole entry T790M): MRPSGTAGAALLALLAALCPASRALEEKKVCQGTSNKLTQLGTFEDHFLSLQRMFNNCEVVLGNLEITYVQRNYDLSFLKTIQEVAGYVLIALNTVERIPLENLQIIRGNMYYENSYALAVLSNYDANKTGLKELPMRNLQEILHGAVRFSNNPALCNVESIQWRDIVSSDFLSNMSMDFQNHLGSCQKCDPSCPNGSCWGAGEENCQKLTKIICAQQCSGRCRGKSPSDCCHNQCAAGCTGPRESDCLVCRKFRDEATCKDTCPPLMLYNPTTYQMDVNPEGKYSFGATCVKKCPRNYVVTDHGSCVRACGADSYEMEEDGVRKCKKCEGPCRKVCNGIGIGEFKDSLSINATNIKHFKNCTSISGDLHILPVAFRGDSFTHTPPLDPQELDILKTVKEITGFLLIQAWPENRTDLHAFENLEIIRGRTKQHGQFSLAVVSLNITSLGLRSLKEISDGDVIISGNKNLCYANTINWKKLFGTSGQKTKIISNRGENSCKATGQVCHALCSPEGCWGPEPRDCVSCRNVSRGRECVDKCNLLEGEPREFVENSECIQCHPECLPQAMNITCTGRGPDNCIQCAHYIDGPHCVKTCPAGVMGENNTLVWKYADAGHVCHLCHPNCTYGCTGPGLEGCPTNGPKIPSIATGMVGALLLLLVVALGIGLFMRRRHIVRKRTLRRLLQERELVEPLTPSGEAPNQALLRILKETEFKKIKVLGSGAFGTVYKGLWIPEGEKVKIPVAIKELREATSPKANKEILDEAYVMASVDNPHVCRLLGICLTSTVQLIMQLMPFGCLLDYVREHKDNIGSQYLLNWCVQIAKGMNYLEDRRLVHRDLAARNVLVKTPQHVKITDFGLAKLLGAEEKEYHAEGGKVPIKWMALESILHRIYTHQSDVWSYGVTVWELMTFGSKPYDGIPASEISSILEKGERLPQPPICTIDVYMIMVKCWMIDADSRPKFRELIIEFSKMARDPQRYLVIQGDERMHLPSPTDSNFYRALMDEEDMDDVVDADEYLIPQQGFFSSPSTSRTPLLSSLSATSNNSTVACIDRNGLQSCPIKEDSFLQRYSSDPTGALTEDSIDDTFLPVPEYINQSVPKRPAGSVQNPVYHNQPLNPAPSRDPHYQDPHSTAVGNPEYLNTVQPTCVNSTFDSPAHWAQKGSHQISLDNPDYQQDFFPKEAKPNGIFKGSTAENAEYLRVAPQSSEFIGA
The target of data set [7] is Serine/threonine-protein kinase PLK1 (Homo sapiens) (UniProt P53350). Particulars: 100 nM.
Description: Inhibition of His-tagged full length human recombinant PLK1 expressed in baculovirus using at 100 nM
Data set [8] is described as follows: Oral bioavailability in Swiss mouse plasma at 20 mg/kg by LC/MS/MS analysis. The data set is classed as ADME, organism-based.
In data set [9] the target is Phosphorylase b kinase gamma catalytic chain, liver/testis isoform (Homo sapiens) (UniProt P15735). The note with it: 100 nM.
Sequence of Phosphorylase b kinase gamma catalytic chain, liver/testis isoform (Homo sapiens) (P15735 whole entry, canonical isoform): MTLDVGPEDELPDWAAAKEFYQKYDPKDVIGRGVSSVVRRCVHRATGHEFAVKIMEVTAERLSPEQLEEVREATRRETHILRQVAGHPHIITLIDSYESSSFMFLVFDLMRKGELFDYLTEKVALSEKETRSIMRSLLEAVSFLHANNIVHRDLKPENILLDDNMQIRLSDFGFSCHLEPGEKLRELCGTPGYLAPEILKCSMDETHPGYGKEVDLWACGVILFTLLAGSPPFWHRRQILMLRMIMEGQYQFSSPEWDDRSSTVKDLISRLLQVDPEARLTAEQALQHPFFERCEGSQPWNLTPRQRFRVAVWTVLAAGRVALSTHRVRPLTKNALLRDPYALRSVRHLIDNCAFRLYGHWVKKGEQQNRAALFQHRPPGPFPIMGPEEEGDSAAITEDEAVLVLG
Description: Inhibition of human full length recombinant N-terminal GST-tagged PHKG2 expressed in baculovirus at 100 nM
Data set [10] in a line: Antiproliferative activity against human Caki2 cells after 72 hrs by MTT assay. It is filed as functional, cell-based. Particulars: CAKI-2, 72 h. On the technique in general: Tetrazolium assays rely on reduction of a dye to a coloured formazan, in cell work by metabolically active cells.
Data set [11] addresses Serine/threonine-protein kinase mTOR (Homo sapiens) (UniProt P42345). The note with it: 100 nM.
Description: Inhibition of GST-tagged human recombinant mTOR (1360 to 2549 residues) expressed in baculovirus using GFP-4E -BP1 as substrate at 100 nM
For data set [12], the system named is HUVEC. Put plainly: Antiangiogenic activity in HUVEC after 72 hrs by MTT assay. The data set is classed as functional, cell-based. Particulars: Homo sapiens.
Data set [13] has as its target High affinity nerve growth factor receptor (Homo sapiens) (UniProt P04629). The note with it: 100 nM.
Description: Inhibition of His-tagged human recombinant TRKA (441 to 796 residues) expressed in baculovirus using Fluorescein-Poly GT as substrate at 100 nM
Data set [14] deals with NUAK family SNF1-like kinase 1 (Homo sapiens) (UniProt O60285). Particulars: 100 nM.
Sequence of NUAK family SNF1-like kinase 1 (Homo sapiens) (O60285 whole entry): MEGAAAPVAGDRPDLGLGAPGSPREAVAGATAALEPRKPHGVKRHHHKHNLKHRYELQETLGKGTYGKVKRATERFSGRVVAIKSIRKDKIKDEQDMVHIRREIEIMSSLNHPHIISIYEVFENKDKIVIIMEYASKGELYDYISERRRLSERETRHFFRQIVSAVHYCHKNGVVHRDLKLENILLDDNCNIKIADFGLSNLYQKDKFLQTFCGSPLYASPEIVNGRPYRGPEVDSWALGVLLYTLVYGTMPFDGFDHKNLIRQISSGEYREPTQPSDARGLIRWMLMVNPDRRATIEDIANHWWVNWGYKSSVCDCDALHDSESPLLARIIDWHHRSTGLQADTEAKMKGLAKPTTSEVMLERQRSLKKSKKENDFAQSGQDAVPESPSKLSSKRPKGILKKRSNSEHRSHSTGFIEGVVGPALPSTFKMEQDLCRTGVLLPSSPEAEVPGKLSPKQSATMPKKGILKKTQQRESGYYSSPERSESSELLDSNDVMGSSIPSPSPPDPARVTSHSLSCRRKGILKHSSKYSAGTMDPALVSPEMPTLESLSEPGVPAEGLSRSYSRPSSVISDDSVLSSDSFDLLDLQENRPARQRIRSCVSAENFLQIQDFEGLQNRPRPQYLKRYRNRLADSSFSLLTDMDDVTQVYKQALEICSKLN
Description: Inhibition of NUAK1 (unknown origin) at 100 nM
Data set [15] deals with Tyrosine-protein kinase ABL1 (Homo sapiens), P00519 [Y253F]. Put plainly: Inhibition of His-tagged full length human recombinant ABL Y253F mutant expressed in baculovirus using Fluorescein-Poly GT as substrate at 100 nM.
The test system of data set [16] is Serine/threonine-protein kinase B-raf (Homo sapiens), P15056 [V600E]. Nature of the data set: Inhibition of full length GST-tagged human recombinant BRAF V600E mutant expressed in baculovirus using Fluorescein-MAP2K1 as substrate at 100 nM.
Sequence of Serine/threonine-protein kinase B-raf (Homo sapiens), P15056 [V600E] (P15056 whole entry V600E): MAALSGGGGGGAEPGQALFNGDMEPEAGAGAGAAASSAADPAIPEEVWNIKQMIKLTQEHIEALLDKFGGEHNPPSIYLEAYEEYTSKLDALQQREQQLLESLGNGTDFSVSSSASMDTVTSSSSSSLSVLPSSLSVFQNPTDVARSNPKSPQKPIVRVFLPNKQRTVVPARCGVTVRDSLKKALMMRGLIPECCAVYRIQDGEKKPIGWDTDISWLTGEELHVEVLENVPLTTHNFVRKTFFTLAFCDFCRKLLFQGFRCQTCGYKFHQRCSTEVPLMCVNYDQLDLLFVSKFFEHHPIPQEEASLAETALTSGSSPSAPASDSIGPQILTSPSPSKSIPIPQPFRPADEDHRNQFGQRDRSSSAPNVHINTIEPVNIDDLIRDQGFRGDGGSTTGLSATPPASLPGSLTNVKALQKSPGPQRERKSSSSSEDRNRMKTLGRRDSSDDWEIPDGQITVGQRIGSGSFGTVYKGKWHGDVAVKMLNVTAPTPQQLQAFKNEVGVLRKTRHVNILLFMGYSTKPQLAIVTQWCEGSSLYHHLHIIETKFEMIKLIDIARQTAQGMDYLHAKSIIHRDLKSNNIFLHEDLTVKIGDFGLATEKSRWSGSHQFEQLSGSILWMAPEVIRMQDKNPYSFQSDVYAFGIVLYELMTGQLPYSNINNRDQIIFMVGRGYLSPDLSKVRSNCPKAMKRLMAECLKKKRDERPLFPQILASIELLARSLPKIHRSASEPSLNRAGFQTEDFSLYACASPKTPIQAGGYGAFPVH
For data set [17], the target named is Proto-oncogene tyrosine-protein kinase Src (Homo sapiens, UniProt P12931). Nature of the data set: Inhibition of full length His-tagged human recombinant cSRC expressed in baculovirus using Fluorescein-Poly GT as substrate.
Sequence of Proto-oncogene tyrosine-protein kinase Src (P12931 2-536 limits assumed): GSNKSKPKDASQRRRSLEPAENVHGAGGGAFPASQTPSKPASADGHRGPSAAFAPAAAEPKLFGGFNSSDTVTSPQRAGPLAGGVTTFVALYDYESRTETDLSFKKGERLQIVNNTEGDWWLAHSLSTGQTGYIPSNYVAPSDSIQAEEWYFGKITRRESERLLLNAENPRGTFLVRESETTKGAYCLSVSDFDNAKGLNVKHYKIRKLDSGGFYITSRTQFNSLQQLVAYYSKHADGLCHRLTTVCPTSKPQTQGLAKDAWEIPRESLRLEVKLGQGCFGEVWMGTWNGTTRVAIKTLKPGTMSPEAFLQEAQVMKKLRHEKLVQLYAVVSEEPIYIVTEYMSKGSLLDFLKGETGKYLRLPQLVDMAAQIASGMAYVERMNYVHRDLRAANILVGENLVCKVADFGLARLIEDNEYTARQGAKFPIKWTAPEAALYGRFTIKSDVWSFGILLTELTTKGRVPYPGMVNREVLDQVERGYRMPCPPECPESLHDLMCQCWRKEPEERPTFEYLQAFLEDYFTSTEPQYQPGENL

A value given as a limit tells only on which side of the number the result lay.

`COC(=O)c1cc2cc(NCc3cc(NC(=O)c4cc(-n5cnc(C)c5)cc(C(F)(F)F)c4)ccc3C)cnc2[nH]1`: the inhibition in data set [1], in data set [2], in data set [3], in [4], in [6] and in data set [7] was below 40% throughout. The inhibition (usually the change of the read-out against control, counted positive when it falls) in data set [9] was below 40%; in data set [11] it was below 40%; in data set [13], below 40%; in [14] it was below 40%; in data set [15], above 80%; in data set [16], above 80%. In data set [5], the Tmax (commonly the time at which the peak concentration occurs) came to 30 min. In data set [8], the bioavailability (in general, the share of a dose that reaches the circulation, judged against a reference dose that is usually intravenous) worked out at 47%. Further, the 50% effective concentration (EC50) (commonly the midpoint of the concentration-response curve) in data set [10] was 22 nM; in [12], 34 nM. The half-inhibitory concentration (IC50) (commonly the concentration that gives 50% inhibition) in data set [17] was 40 nM.
